# From patent US20250051403A1, “ANTIMICROBIAL PEPTIDES, VARIANTS AND CHEMICAL ANALOGUES THEREOF AND THEIR USES” (priority 2021, published 2025)
# Like-named read-outs stand apart in the source and are kept apart here. Positions of bridges follow the written chain, without caps; N, C: chain ends. Residues, ends and D or L forms follow the SMILES beside them.
# Legend:
# [1] = test system: A. baumannii antibiotic resistant (CIP 110431)
# [2] = test system: Burkholderia cepacia (DSM 7288); experiment: MIC, broth microdilution; format: cell-based
# [3] = test system: Acinetobacter baumannii (CIP 103572); experiment: MIC, broth microdilution; format: cell-based
# [4] = test system: Enterococcus faecalis Vancomycin-resistant (DSMZ 13591); experiment: MIC, broth microdilution; format: cell-based
# [5] = test system: Pseudomonas aeruginosa (ATCC 9027); experiment: MIC, broth microdilution; format: cell-based; conditions: Table IV
# M. bovis BCG Pasteur = conditions: Table IV; REMA, 90% growth inhibition
# [6] = test system: Staphylococcus aureus (ATCC 6538P); experiment: MIC, broth microdilution; format: cell-based
# [7] = test system: Salmonella enterica (CIP 80.39); experiment: MIC, broth microdilution; format: cell-based; conditions: Table IV
# Method: (§1) To standardize the bacterial cell suspension for assay of antibacterial activity, some colonies of each strain grown overnight on MHA (Mueller Hinton Agar. ROTH) plates were suspended in MHB (Mueller Hinton Broth. ROTH) or MHB saline (Mueller Hinton Broth containing 565 mM NaCl) and incubated at 37° C. or 30° C. until visible turbid. This log-phase inoculum was diluted 1:100 in the same culture media. Using sterile 96-well microtiter plates (CELLSTAR. Greiner bio-one), serial 2-fold dilutions (40 to 0.78 μM) of each peptide were prepared in cation-adjusted acetic acid 0.02% with 0.4% BSA (Bovin Serum Albumin fraction V. Boehringer) at a volume of 10 μL/well. Each well was inoculated with 100 μL of the standardized bacterial inoculum, corresponding to a final test concentration of about 10^5 CFU/mL. Antimicrobial activities were expressed as the MIC (Minimal Inhibitory Concentration), the lowest concentration of peptide at which 100% inhibition of microbial growth was observed after 24 h of incubation at 37° C. or 30° C. by measuring OD600 in a microtiter plate reader. The minimal bactericidal concentration (MBC) was defined as the peptide concentration where no colony growth was observed.
# (§2) The same experiments as described in 1) were performed. For the evaluation of antimicrobial activity against some other strains, a resazurin microtiter assay was used as explained hereinafter.
# [8] = test system: Bacillus subtilis (ATCC 6633); experiment: MIC, broth microdilution; format: cell-based; conditions: Table IV
# Method: as §1, §2
# [9] = test system: Klebsiella pneumoniae carbapenem-resistant (DSMZ 26371); experiment: MIC, broth microdilution; format: cell-based
# [10] = test system: Helicobacter pylori (ATCC 43504); experiment: MIC, broth microdilution; format: cell-based
# S. aureus (Pasteur) = experiment: MIC, broth microdilution; format: cell-based, Staphylococcus aureus
# E. coli (D31 Pasteur) = experiment: MIC, broth microdilution; format: cell-based, Escherichia coli; conditions: Table IV
# Method: as §1, §2
# [11] = test system: B. subtilis nisin resistant (DSMZ 347); conditions: Table IV
# [12] = test system: P. aeruginosa Fluoroquinolone resistant (CIP 107398); experiment: MIC, broth microdilution; format: cell-based, Pseudomonas aeruginosa
# [13] = test system: Escherichia coli (ATCC 8739); experiment: MIC, broth microdilution; format: cell-based
# [14] = test system: S. aureus methicillin resistant USA300 (ATCC BAA-1717); experiment: MIC, broth microdilution; format: cell-based, Staphylococcus aureus
# V. alginolyticus = experiment: Scanning electron microscopy of treated bacteria; format: cell-based, Vibrio alginolyticus; conditions: FIG. 9
# From the text: (§3) The arrows show pore formed through the membrane. For V. diabolicus, despite the results of FIG. 3, is seems that Michelicin has a pore-forming activity on these bacteria.
# Pseudomonas sp. = experiment: MIC, broth microdilution; format: cell-based; conditions: Table III; MHB saline 565 mM NaCl
# Method: as §1
# Serratia marcescens = experiment: MIC, broth microdilution; format: cell-based
# Pseudomonas sp biofilm = experiment: Biofilm formation assay (crystal violet); format: cell-based; conditions: 20 μM peptide, 2 h at 37° C. on 48 h biofilm; untreated culture 0.95
# Method: Overnight cultures of V. diabolicus and Pseudomonas sp (37° C., 200 rpm) were diluted to an OD600 of 0.1 in MHB medium and 200 μL aliquots of the suspensions were introduced into the wells of a 96 microtiter plates (Nunc). Plates were then incubated at 37° C. without shaking for 48 h. After removal of the standing culture, the wells were washed with MHB medium and Michelicin, Arenicin and Alvinellacin were added, respectively, at a final concentration of 20 μM in MHB. The treatment was performed during 2 h at 37° C. Wells were then washed three times with distilled water and the remaining attached bacteria were fixed with 99% methanol per well for 20 min at room temperature. Afterward, methanol was removed and plates were air-dried. Biofilms were stained with 300 μL of 1% crystal violet (v/v) for 20 min at room temperature, before the residual stain was removed. After washing, the crystal violet bound to the adherent cells was solubilized with 300 μL of 100% ethanol and absorbance was measured at 595 nm (TECAN, sunrise). Sterile medium served as negative control. It is clear on the view of FIG. 3 that Michelicin has a greater antimicrobial activity on a biofilm of Pseudomonoas sp strains than Alvinellacin. For Pseudomonas sp, OD595 is equal to 0.6 when treated with Michelicin, equal to 0.55 when treated with Arenicin and equal to 0.65 when treated with Alvinellacin. […]
# [15] = test system: E. coli carbapenem- resistant (DSMZ 22314)
# V. diabolicus = experiment: Scanning electron microscopy of treated bacteria; format: cell-based, Vibrio diabolicus; conditions: FIG. 9
# From the text: as §3
# [16] = test system: Mycobacterium tuberculosis mc^26230
# [17] = test system: V. alginolyticus (MPV19 IFREMER); experiment: MIC, broth microdilution; format: cell-based, Vibrio alginolyticus
# [18] = test system: M. abscessus R (CIP104537^TR); conditions: Table IV; REMA, 90% growth inhibition
# Jurkat human cells = conditions: cited from earlier work
# [19] = Cytotoxicity, resazurin cell viability; format: cell-based, human; conditions: human
# Method: The toxicity of Michelicin on human cells was tested as previously described (Borie et al., 2017; Oyama et al., 2017). Briefly, human cells were cultured in Dulbecco's modified essential medium (DMEM) supplemented with 10% fetal calf serum (FCS), 1% L-glutamine and 1% antibiotics (all from Invitrogen). Cells were routinely grown in onto 25 cm^2 flasks maintained in a 5% CO2 incubator at 37° C. For toxicity assay, cells grown on 25 cm^2 flasks were detached using trypsin-EDTA solution (Thermofisher) and seeded into 96-well cell culture plates (Greiner Bio-one) at approximately 10^4 cells per well (counted using Mallasez's chamber). The cells were grown at 37° C. in a 5% CO2 incubator until they reached confluence (approximately 48-72 h of seeding). Wells were then aspirated and increasing concentrations of AMP were added to the cells and incubated for a further 48 h at 37° C. in a 5% CO2 incubator. The wells were then emptied, and cell viability was evaluated using resazurin based in vitro toxicity assay kit (Sigma-Aldrich) following manufacturer's instructions. Briefly, resazurin stock solution was diluted 1:100 in sterile PBS containing calcium and magnesium (PBS++, pH 7.4) and emptied wells were filled with 100 μL of the resazurin diluted solution. After 4 h incubation at 37° C. with the peptide treated cells, fluorescence intensity was measured using microplate reader (SynerMix, Bioteck) (excitation wavelength of 530 nm/emission wavelength of 590 nm). The fluorescence values were normalized by the controls and expressed as percentage of cell viability. The IC50 values of tested AMP on cell viability (i.e. the concentration of peptides causing a reduction of 50% of the cell viability) were calculated using GraphPad® Prism 7 software. Two cell lines were tested: Human Bronchial Epithelial Cell Line (BEAS; ATCC CRL-9609) and Human umbilical vein endothelial cell (HUVEC).
smiles,measurement,setting,value
"CSCC[C@@H]1NC(=O)[C@@H]2CSSC[C@H](NC(=O)[C@H](CCCNC(=N)N)NC(=O)[C@H]([C@@H](C)O)NC(=O)[C@H](Cc3ccc(O)cc3)NC(=O)[C@@H](NC(=O)CNC(=O)[C@@H](N)CCCNC(=N)N)CSSC[C@@H](C(=O)N[C@H](C(=O)O)[C@@H](C)O)NC(=O)[C@H](C(C)C)NC(=O)[C@H](CCCNC(=N)N)NC1=O)C(=O)N[C@@H](Cc1c[nH]c3ccccc13)C(=O)N[C@@H](CCCCN)C(=O)N[C@@H](C(C)C)C(=O)NCC(=O)N[C@@H](CCCNC(=N)N)C(=O)N[C@@H](CC(N)=O)C(=O)NCC(=O)N[C@@H](CCCNC(=N)N)C(=O)N[C@@H](C(C)C)C(=O)N2 [Alvinellacin] (H-RGCYTRCWKVGRNGRVCMRVCT-OH; disulfide 3-21, 7-17; N-terminus and C-terminus assumed)",MIC,[1]; Table IV,0.625 to 1.25 µM
same,MIC,[2]; Table IV,10 µM
same,MIC,[3]; Table IV,1.25 to 2.5 µM
same,MIC,[4]; Table IV,20 to 40 µM
same,MIC,[5],1.25 to 2.5 µM
same,MIC,M. bovis BCG Pasteur,12.0 to 21.4 µM
same,MIC,[6]; Table IV,2.5 to 5 µM
same,MIC,[7],0.625 to 1.25 µM
same,MIC,[8],0.625 to 1.25 µM
same,MIC,[9]; Table IV,1.25 to 2.5 µM
same,MIC,[10]; Table IV,1.25 to 2.5 µM
same,MIC,S. aureus (Pasteur); Table IV,1.25 to 2.5 µM
same,MIC,Bacillus megaterium,0.15 to 0.31 µM
same,MIC with 565 mM NaCl,Bacillus megaterium,2.5 to 5 µM
same,MIC,E. coli (D31 Pasteur),0.31 to 0.62 µM
same,MIC,[11],0.625 to 1.25 µM
same,MIC,[12]; Table IV,1.25 to 2.5 µM
same,MIC,[13]; Table IV,1.25 to 2.5 µM
same,MIC,V. diabolicus (HE 800),2.5 to 5 µM
same,MIC with 565 mM NaCl,V. diabolicus (HE 800),2.5 to 5 µM
same,MIC,Vibrio alginolyticus,0.07 to 0.15 µM
same,MIC with 565 mM NaCl,Vibrio alginolyticus,0.07 to 0.15 µM
same,MIC,Vibrio alginolyticus; 24 h,0.07 to 0.15 µM
same,MIC,[14]; Table IV,2.5 to 5 µM
same,Membrane damage seen by scanning electron microscopy,V. alginolyticus,able to damage
same,MIC with 565 mM NaCl,Pseudomonas sp.,5 to 10 µM
same,MIC,Serratia marcescens; Table IV,>50 µM
same,Biofilm OD595 after treatment,Pseudomonas sp biofilm,0.65
same,MIC,[15]; Table IV,0.625 to 1.25 µM
same,Membrane damage seen by scanning electron microscopy,V. diabolicus,able to damage
same,MIC,[16],16.0 to 21.5 µM
same,MIC,"[17]; Table III, MHB",0.07 to 0.15 µM
same,MIC with 565 mM NaCl,"[17]; Table III, MHB saline 565 mM NaCl",0.62 to 1.25 µM
same,MIC,[17]; Table IV,0.07 to 0.15 µM
same,MIC,[18],17.0 to 17.8 µM
CC(C)C[C@@H]1NC(=O)[C@H](C(C)C)NC(=O)CNC(=O)[C@H](CCCNC(=N)N)NC(=O)[C@H](C(C)C)NC(=O)[C@H](CCCNC(=N)N)NC(=O)[C@H](C(C)C)NC(=O)[C@H](Cc2ccc(O)cc2)NC(=O)[C@H](C)NC(=O)[C@H](Cc2ccc(O)cc2)NC(=O)[C@H](C(C)C)NC(=O)[C@@H](NC(=O)[C@H](Cc2c[nH]c3ccccc23)NC(=O)[C@@H](N)CCCNC(=N)N)CSSC[C@@H](C(=O)N[C@@H](Cc2c[nH]c3ccccc23)C(=O)O)NC(=O)[C@H](CCCNC(=N)N)NC(=O)[C@H](CCCNC(=N)N)NC(=O)[C@H](Cc2ccc(O)cc2)NC(=O)[C@H](CCCNC(=N)N)NC(=O)[C@H](C(C)C)NC1=O [Arenicin] (H-RWCVYAYVRVRGVLVRYRRCW-OH; disulfide 3-20),MIC,[1]; CIP 110431,20 to 40 µM
same,MIC,[2]; DSM 7288,25 µM
same,MIC,[3]; CIP 103572,1.25 to 2.5 µM
same,MIC,[4]; DSMZ 13591,1.25 to 2.5 µM
same,MIC,[6]; ATCC 6538,1.25 to 2.5 µM
same,MIC,[9]; DSMZ 26371,1.25 to 2.5 µM
same,MIC,[10]; ATCC 43504,1.25 to 2.5 µM
same,MIC,S. aureus (Pasteur); Pasteur,1.25 to 2.5 µM
same,MIC,M. smegmatis mc^2155,0.7 to 10 µM
same,MIC,Bacillus megaterium,0.07 to 0.15 µM
same,MIC with 565 mM NaCl,Bacillus megaterium,20 to 40 µM
same,Cytotoxicity towards Jurkat human cells,Jurkat human cells,cytotoxic
same,"viability at 48 h, 80 µM",[19]; BEAS human bronchial epithelial cells (ATCC CRL-9609),95%
same,"viability at 48 h, 80 µM",[19]; HUVEC (human umbilical vein endothelial cells),40%
same,MIC,[12]; CIP 107398,1.25 to 2.5 µM
same,MIC,[13]; ATCC 8739,2.5 to 5 µM
same,MIC,V. diabolicus (HE 800),1.25 to 2.5 µM
same,MIC with 565 mM NaCl,V. diabolicus (HE 800),10 to 20 µM
same,MIC,Vibrio alginolyticus,0.15 to 0.31 µM
same,MIC with 565 mM NaCl,Vibrio alginolyticus,0.07 to 0.15 µM
same,MIC,Vibrio alginolyticus; 24 h,0.15 to 0.31 µM
same,MIC,[14]; USA300,5 to 10 µM
same,MIC,Serratia marcescens,>50 µM
same,Biofilm OD595 after treatment,Pseudomonas sp biofilm,0.55
same,MIC,[15]; DSMZ 22314,2.5 to 5 µM
same,MIC,[16],7.1 to 12.2 µM
same,MIC,[17],0.15 to 0.31 µM
same,MIC with 565 mM NaCl,[17],2.5 to 5 µM
